Reference: PubChem BioAssay (NCI)
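Results reflect a 48-hour exposure of cells in 96-well plates to compound at five concentrations. TGI denotes the concentration required for complete inhibition of growth.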

Key:
Assay in all cases: NCI anticancer screen, dose series, 48 h
CAKI-1 renal = tested on: CAKI-1 renal
OVCAR-3 ovarian = tested on: OVCAR-3 ovarian
SR leukemia = tested on: SR leukemia
RXF 393 renal = tested on: RXF 393 renal
OVCAR-4 ovarian = tested on: OVCAR-4 ovarian
SK-MEL-5 melanoma = tested on: SK-MEL-5 melanoma
IGROV1 ovarian = tested on: IGROV1 ovarian
M14 melanoma = tested on: M14 melanoma
NCI/ADR-RES ovarian = tested on: NCI/ADR-RES ovarian
SF-295 CNS = tested on: SF-295 CNS
HT29 colon = tested on: HT29 colon
SK-MEL-28 melanoma = tested on: SK-MEL-28 melanoma
786-0 renal = tested on: 786-0 renal
NCI-H226 lung = tested on: NCI-H226 lung
K-562 leukemia = tested on: K-562 leukemia
SK-MEL-2 melanoma = tested on: SK-MEL-2 melanoma
PC-3 prostate = tested on: PC-3 prostate
MDA-MB-435 = tested on: MDA-MB-435
NCI-H23 lung = tested on: NCI-H23 lung
TK-10 renal = tested on: TK-10 renal
SF-539 CNS = tested on: SF-539 CNS
UACC-62 melanoma = tested on: UACC-62 melanoma
OVCAR-5 ovarian = tested on: OVCAR-5 ovarian
CCRF-CEM leukemia = tested on: CCRF-CEM leukemia
ACHN renal = tested on: ACHN renal
LOX IMVI melanoma = tested on: LOX IMVI melanoma
SN12C renal = tested on: SN12C renal
SK-OV-3 ovarian = tested on: SK-OV-3 ovarian
A549 NSCLC = tested on: A549 NSCLC
DU-145 prostate = tested on: DU-145 prostate
KM12 colon = tested on: KM12 colon
NCI-H460 lung = tested on: NCI-H460 lung
MOLT-4 leukemia = tested on: MOLT-4 leukemia
MALME-3M melanoma = tested on: MALME-3M melanoma
MCF7 breast = tested on: MCF7 breast
UO-31 renal = tested on: UO-31 renal
UACC-257 melanoma = tested on: UACC-257 melanoma
HCT-116 colon = tested on: HCT-116 colon
U251 CNS = tested on: U251 CNS
A498 renal = tested on: A498 renal
HCC-2998 colon = tested on: HCC-2998 colon
HOP-62 NSCLC = tested on: HOP-62 NSCLC
BT-549 breast = tested on: BT-549 breast
SNB-75 CNS = tested on: SNB-75 CNS
RPMI-8226 leukemia = tested on: RPMI-8226 leukemia
MDA-MB-231 breast = tested on: MDA-MB-231 breast
HCT-15 colon = tested on: HCT-15 colon
SNB-19 CNS = tested on: SNB-19 CNS
MDA-N = tested on: MDA-N
SF-268 CNS = tested on: SF-268 CNS
OVCAR-8 ovarian = tested on: OVCAR-8 ovarian
EKVX NSCLC = tested on: EKVX NSCLC
COLO 205 colon = tested on: COLO 205 colon
NCI-H522 lung = tested on: NCI-H522 lung
SW-620 colon = tested on: SW-620 colon
HS 578T breast = tested on: HS 578T breast
HOP-92 NSCLC = tested on: HOP-92 NSCLC
HL-60(TB) leukemia = tested on: HL-60(TB) leukemia
T-47D breast = tested on: T-47D breast

O=C(OCC(OC(=O)c1ccccc1)C1CC(C2(O)CCCCC2)C(=O)O1)c1ccccc1 (centres undefined)
TGI (CAKI-1 renal): > 25 µM
TGI (OVCAR-3 ovarian): > 25 µM
TGI (SR leukemia): > 25 µM
TGI (RXF 393 renal): > 25 µM
TGI (OVCAR-4 ovarian): > 25 µM
TGI (SK-MEL-5 melanoma): > 25 µM
TGI (IGROV1 ovarian): > 25 µM
TGI (M14 melanoma): > 25 µM
TGI (NCI/ADR-RES ovarian): > 25 µM
TGI (SF-295 CNS): > 25 µM
TGI (HT29 colon): > 25 µM
TGI (SK-MEL-28 melanoma): > 25 µM
TGI (786-0 renal): > 25 µM
TGI (NCI-H226 lung): > 25 µM
TGI (K-562 leukemia): > 25 µM
TGI (SK-MEL-2 melanoma): > 25 µM
TGI (PC-3 prostate): > 25 µM
TGI (MDA-MB-435): > 25 µM
TGI (NCI-H23 lung): 7.85 µM
TGI (TK-10 renal): > 25 µM
TGI (SF-539 CNS): > 25 µM
TGI (UACC-62 melanoma): 2.21 µM
TGI (OVCAR-5 ovarian): > 25 µM
TGI (CCRF-CEM leukemia): > 25 µM
TGI (ACHN renal): > 25 µM
TGI (LOX IMVI melanoma): > 25 µM
TGI (SN12C renal): > 25 µM
TGI (SK-OV-3 ovarian): > 25 µM
TGI (A549 NSCLC): > 25 µM
TGI (DU-145 prostate): > 25 µM
TGI (KM12 colon): > 25 µM
TGI (NCI-H460 lung): > 25 µM
TGI (MOLT-4 leukemia): 19.1 µM
TGI (MALME-3M melanoma): > 25 µM
TGI (MCF7 breast): > 25 µM
TGI (UO-31 renal): 3.88 µM
TGI (UACC-257 melanoma): > 25 µM
TGI (HCT-116 colon): > 25 µM
TGI (U251 CNS): > 25 µM
TGI (A498 renal): > 25 µM
TGI (HCC-2998 colon): > 25 µM
TGI (HOP-62 NSCLC): > 25 µM
TGI (BT-549 breast): > 25 µM
TGI (SNB-75 CNS): > 25 µM
TGI (RPMI-8226 leukemia): > 25 µM
TGI (MDA-MB-231 breast): > 25 µM
TGI (HCT-15 colon): > 25 µM
TGI (SNB-19 CNS): > 25 µM
TGI (MDA-N): > 25 µM
TGI (SF-268 CNS): > 25 µM
TGI (OVCAR-8 ovarian): > 25 µM
TGI (EKVX NSCLC): > 25 µM
TGI (COLO 205 colon): > 25 µM
TGI (NCI-H522 lung): > 25 µM
TGI (SW-620 colon): > 25 µM

CC(=O)Oc1cc(-c2oc3cc(OC(C)=O)c(C4OC(CO)C(O)C(O)C4O)c(OC(C)=O)c3c(=O)c2O)c(OC(C)=O)cc1O (centres undefined)
TGI (CAKI-1 renal): > 100 µM
TGI (OVCAR-3 ovarian): > 100 µM
TGI (RXF 393 renal): > 100 µM
TGI (OVCAR-4 ovarian): > 100 µM
TGI (SK-MEL-5 melanoma): > 100 µM
TGI (IGROV1 ovarian): > 100 µM
TGI (M14 melanoma): > 100 µM
TGI (NCI/ADR-RES ovarian): > 100 µM
TGI (SF-295 CNS): > 100 µM
TGI (HT29 colon): > 100 µM
TGI (786-0 renal): > 100 µM
TGI (NCI-H226 lung): > 100 µM
TGI (K-562 leukemia): > 100 µM
TGI (SK-MEL-2 melanoma): > 100 µM
TGI (PC-3 prostate): > 100 µM
TGI (MDA-MB-435): > 100 µM
TGI (HS 578T breast): > 100 µM
TGI (NCI-H23 lung): > 100 µM
TGI (TK-10 renal): > 100 µM
TGI (UACC-62 melanoma): > 100 µM
TGI (OVCAR-5 ovarian): > 100 µM
TGI (CCRF-CEM leukemia): > 100 µM
TGI (ACHN renal): > 100 µM
TGI (LOX IMVI melanoma): > 100 µM
TGI (SN12C renal): > 100 µM
TGI (SK-OV-3 ovarian): > 100 µM
TGI (A549 NSCLC): > 100 µM
TGI (DU-145 prostate): > 100 µM
TGI (KM12 colon): > 100 µM
TGI (NCI-H460 lung): > 100 µM
TGI (MOLT-4 leukemia): > 100 µM
TGI (MALME-3M melanoma): > 100 µM
TGI (HOP-92 NSCLC): > 100 µM
TGI (MCF7 breast): > 100 µM
TGI (UO-31 renal): > 100 µM
TGI (UACC-257 melanoma): > 100 µM
TGI (HCT-116 colon): > 100 µM
TGI (U251 CNS): > 100 µM
TGI (HCC-2998 colon): > 100 µM
TGI (HOP-62 NSCLC): > 100 µM
TGI (BT-549 breast): > 100 µM
TGI (HL-60(TB) leukemia): > 100 µM
TGI (SNB-75 CNS): > 100 µM
TGI (RPMI-8226 leukemia): > 100 µM
TGI (MDA-MB-231 breast): > 100 µM
TGI (HCT-15 colon): > 100 µM
TGI (MDA-N): > 100 µM
TGI (OVCAR-8 ovarian): > 100 µM
TGI (EKVX NSCLC): > 100 µM
TGI (COLO 205 colon): > 100 µM
TGI (NCI-H522 lung): > 100 µM
TGI (SW-620 colon): > 100 µM

Cn1cnc(C(=N)[Se])c1N
TGI (CAKI-1 renal): 60.9 µM
TGI (SK-MEL-5 melanoma): > 100 µM
TGI (M14 melanoma): > 100 µM
TGI (NCI/ADR-RES ovarian): 3.15 µM
TGI (HT29 colon): > 100 µM
TGI (SK-MEL-28 melanoma): > 100 µM
TGI (NCI-H226 lung): 12.5 µM
TGI (PC-3 prostate): 14.9 µM
TGI (MDA-MB-435): > 100 µM
TGI (HS 578T breast): > 26.4 µM
TGI (NCI-H23 lung): > 27.1 µM
TGI (TK-10 renal): > 24.8 µM
TGI (SF-539 CNS): 4.18 µM
TGI (OVCAR-5 ovarian): > 100 µM
TGI (CCRF-CEM leukemia): 6.26 µM
TGI (LOX IMVI melanoma): > 100 µM
TGI (SK-OV-3 ovarian): 2.3 µM
TGI (A549 NSCLC): > 100 µM
TGI (DU-145 prostate): > 100 µM
TGI (KM12 colon): > 28.8 µM
TGI (NCI-H460 lung): 1.55 µM
TGI (MALME-3M melanoma): 8.89 µM
TGI (T-47D breast): > 100 µM
TGI (HOP-92 NSCLC): > 100 µM
TGI (MCF7 breast): > 29.3 µM
TGI (UACC-257 melanoma): > 100 µM
TGI (HCT-116 colon): > 100 µM
TGI (A498 renal): > 28.6 µM
TGI (HCC-2998 colon): > 100 µM
TGI (HOP-62 NSCLC): > 23.4 µM
TGI (SNB-75 CNS): 4.38 µM
TGI (RPMI-8226 leukemia): 6.95 µM
TGI (HCT-15 colon): > 100 µM
TGI (SNB-19 CNS): > 28 µM
TGI (MDA-N): > 100 µM
TGI (SF-268 CNS): 4.94 µM
TGI (OVCAR-8 ovarian): 3.31 µM
TGI (SW-620 colon): > 100 µM

NC(=O)c1csc(-c2ccc(CO)o2)n1
TGI (CAKI-1 renal): > 100 µM
TGI (OVCAR-3 ovarian): > 100 µM
TGI (SR leukemia): > 100 µM
TGI (RXF 393 renal): > 100 µM
TGI (OVCAR-4 ovarian): > 100 µM
TGI (SK-MEL-5 melanoma): > 100 µM
TGI (IGROV1 ovarian): > 100 µM
TGI (M14 melanoma): > 100 µM
TGI (NCI/ADR-RES ovarian): > 100 µM
TGI (SF-295 CNS): > 100 µM
TGI (HT29 colon): > 100 µM
TGI (SK-MEL-28 melanoma): > 100 µM
TGI (786-0 renal): > 100 µM
TGI (NCI-H226 lung): > 100 µM
TGI (K-562 leukemia): > 100 µM
TGI (SK-MEL-2 melanoma): > 100 µM
TGI (PC-3 prostate): > 100 µM
TGI (MDA-MB-435): > 100 µM
TGI (NCI-H23 lung): > 100 µM
TGI (TK-10 renal): > 100 µM
TGI (SF-539 CNS): > 100 µM
TGI (UACC-62 melanoma): > 100 µM
TGI (OVCAR-5 ovarian): > 100 µM
TGI (ACHN renal): > 100 µM
TGI (LOX IMVI melanoma): > 100 µM
TGI (SN12C renal): > 100 µM
TGI (SK-OV-3 ovarian): > 100 µM
TGI (A549 NSCLC): > 100 µM
TGI (DU-145 prostate): > 100 µM
TGI (KM12 colon): > 100 µM
TGI (NCI-H460 lung): > 100 µM
TGI (MOLT-4 leukemia): > 100 µM
TGI (MALME-3M melanoma): > 100 µM
TGI (T-47D breast): > 100 µM
TGI (HOP-92 NSCLC): > 100 µM
TGI (MCF7 breast): > 100 µM
TGI (UO-31 renal): > 100 µM
TGI (UACC-257 melanoma): > 100 µM
TGI (HCT-116 colon): > 100 µM
TGI (U251 CNS): > 100 µM
TGI (A498 renal): > 100 µM
TGI (BT-549 breast): > 100 µM
TGI (HL-60(TB) leukemia): > 100 µM
TGI (RPMI-8226 leukemia): > 100 µM
TGI (MDA-MB-231 breast): > 100 µM
TGI (HCT-15 colon): > 100 µM
TGI (SNB-19 CNS): > 100 µM
TGI (MDA-N): > 100 µM
TGI (SF-268 CNS): > 100 µM
TGI (OVCAR-8 ovarian): > 100 µM
TGI (EKVX NSCLC): > 100 µM
TGI (COLO 205 colon): > 100 µM
TGI (NCI-H522 lung): > 100 µM
TGI (SW-620 colon): > 100 µM
